For orientation: IC50 means the midpoint of a concentration-inhibition curve.

The experiment relates to Molm 13-RES-luc cells that expressed FLT3-ITD/D835Y. Kind of experiment: MTT assay in tandutinib-resistant Molm 13-RES-luc cells. The settings on record: Homo sapiens, tandutinib resistant Molm 13 cells, mean of 3 studies with 6 replicates each (n=18), read-out: IC50 pFLT3 (text: cell viability, MTT assay). The class given is cell-based. For orientation: Tetrazolium dyes change colour on reduction, which living cells bring about.

`CC1(COc2ccc3c(c2)ncn3-c2ccc3cccc(N4CCC(N)CC4)c3n2)COC1` [Crenolanib, reference compound]: the half-maximal inhibitory concentration (IC50) stood at 3.3 nM.

Source of the values: patent US10463658B2, “Method of inhibiting FLT3 kinase” (AROG Pharmaceuticals, LLC, priority 2013, dated 2019).
